From patent US10626144B2, “Peptide derivatives and uses thereof” (Nosopharm, priority 2014, dated 2020)
Read-outs that look alike come from different tables or passages of the source. Numbered stars: 1 amine (or outer) side, 2 acyl side, 3 side chain; on linkers, the order of the positions; unused ones are H or OH. Square brackets hold non-standard residues; d marks the D form. Peptide text beside a SMILES is read from it. * marks the point of attachment. Dab(3S-OH) = NC[C@H](O)[C@H](N)C(=O)O; Gly(cPent) = N[C@H](C(=O)O)C1CCCC1; ΔZArg = N=C(N)NCC/C=C(\N)C(=O)O; AllylGly = C=CC[C@H](N)C(=O)O; NMeK = CN[C@@H](CCCCN)C(=O)O; X2 = CC=C(N[*:1])C(=O)[*:2]; dOrn = NCCC[C@@H](N)C(=O)O; hSer = N[C@@H](CCO)C(=O)O; Pra = C#CC[C@H](N)C(=O)O; Dab = NCC[C@H](N)C(=O)O; Dap = NC[C@H](N)C(=O)O; NH(CH2)4NH2 = NCCCCN*

Assays:
[1] = molecular target: N-type calcium channels (Cav2.2) (Rattus norvegicus (Rat), UniProt Q02294); experiment: biochemical; assay type: binding
[2] = test system: Pseudomonas aeruginosa ATCC 27853; experiment: MIC, broth microdilution (CLSI), reference strain; conditions: CAMHB
[3] = test system: Escherichia coli ATCC 25922; experiment: MIC, broth microdilution (CLSI), reference strain; conditions: CAMHB
[4] = test system: Staphylococcus aureus ATCC 13709; experiment: MIC, broth microdilution (CLSI), reference strain; conditions: CAMHB
[5] = test system: Acinetobacter baumannii ATCC 19606; experiment: MIC, broth microdilution (CLSI), reference strain; conditions: CAMHB
[6] = class symbol, rat cerebral cortex, [125I]ω-conotoxin GVIA 0.001 nM, 30 minutes at room temperature, read-out: IC50 Cav2.2
[7] = value in brackets, rat cerebral cortex, [125I]ω-conotoxin GVIA 0.001 nM, read-out: IC50 Cav2.2

| Compound | IC50 [1, 6] [µM] | Pa: MIC Pseudomonas aeruginosa ATCC 27853 [2] | Ec: MIC Escherichia coli ATCC 25922 [3] | Sa: MIC Staphylococcus aureus ATCC 13709 [4] | Ab: MIC Acinetobacter baumannii ATCC 19606 [5] | IC50 [1] [µM] | IC50 [1, 7] [µM] |
| --- | --- | --- | --- | --- | --- | --- | --- |
| N=C(N)NCC/C=C(\NC(=O)[C@H](CCCCN)NC(=O)[C@H](Cc1cnc[nH]1)NC(=O)[C@@H]1CCCN1C(=O)[C@@H](CCCN)NC(=O)CNC(=O)[C@H](CCN)NC(=O)[C@@H](NC(=O)[C@@H](N)CCCCN)[C@@H](O)CN)C(=O)N[C@@H](CCCCN)C(=O)NCCCCN [21.1] (H-K[Dab(3S-OH)][Dab]G[dOrn]PHK[ΔZArg]K-{NH(CH2)4NH2}) | < 0.03 | ++ (≤8 μg/mL) | ++ (≤8 μg/mL) | ++ (≤8 μg/mL) | ++ (≤8 μg/mL) | – | – |
| CN[C@@H](CCCCN)C(=O)N[C@H](C(=O)N[C@H](C(=O)NCC(=O)N[C@H](CCCN)C(=O)N1CCC[C@H]1C(=O)N[C@@H](Cc1cnc[nH]1)C(=O)N[C@@H](CCCCN)C(=O)N/C(=C\CCNC(=N)N)C(=O)N[C@@H](CCCCN)C(=O)NCCCCN)[C@@H](O)CN)[C@@H](O)CN [22.3] (H-[NMeK][Dab(3S-OH)][Dab(3S-OH)]G[dOrn]PHK[ΔZArg]K-{NH(CH2)4NH2}) | < 0.03 | + (≤32 μg/mL) | ++ (≤8 μg/mL) | ++ (≤8 μg/mL) | + (≤32 μg/mL) | – | – |
| C[C@H](NC(=O)[C@@H]1CCCN1C(=O)[C@@H](CCCN)NC(=O)CNC(=O)[C@@H](NC(=O)[C@@H](NC(=O)[C@@H](N)CCCCN)[C@@H](O)CN)[C@@H](O)CN)C(=O)N[C@@H](CCCCN)C(=O)N/C(=C\CCNC(=N)N)C(=O)N[C@@H](CCCCN)C(=O)NCCCCN [22.4] (H-K[Dab(3S-OH)][Dab(3S-OH)]G[dOrn]PAK[ΔZArg]K-{NH(CH2)4NH2}) | < 0.03 | + (≤32 μg/mL) | ++ (≤8 μg/mL) | ++ (≤8 μg/mL) | − (>32 μg/mL) | – | – |
| N=C(N)NCCC[C@@H](NC(=O)[C@H](CCCCN)NC(=O)[C@H](Cc1cnc[nH]1)NC(=O)[C@@H]1CCCN1C(=O)[C@@H](CCCN)NC(=O)CNC(=O)[C@@H](NC(=O)[C@@H](NC(=O)[C@@H](N)CCCCN)[C@@H](O)CN)[C@@H](O)CN)C(=O)N[C@@H](CCCCN)C(=O)NCCCCN [22.5] (H-K[Dab(3S-OH)][Dab(3S-OH)]G[dOrn]PHK[dR]K-{NH(CH2)4NH2}) | < 0.03 | + (≤32 μg/mL) | + (≤32 μg/mL) | ++ (≤8 μg/mL) | − (>32 μg/mL) | – | – |
| CC=C(NC(=O)[C@H](CCCCN)NC(=O)[C@H](Cc1cnc[nH]1)NC(=O)[C@@H]1CCCN1C(=O)[C@@H](CCCN)NC(=O)CNC(=O)[C@@H](NC(=O)[C@@H](NC(=O)[C@@H](N)CCCCN)[C@@H](O)CN)[C@@H](O)CN)C(=O)N[C@@H](CCCCN)C(=O)NCCCCN [22.15] (H-K[Dab(3S-OH)][Dab(3S-OH)]G[dOrn]PHK[X2]K-{NH(CH2)4NH2}) | – | − (>32 μg/mL) | + (≤32 μg/mL) | ++ (≤8 μg/mL) | − (>32 μg/mL) | < 0.03 | 0.004 |
| C[C@H](N)C(=O)N[C@H](C(=O)N[C@H](C(=O)NCC(=O)N[C@H](CCCN)C(=O)N1CCC[C@H]1C(=O)N[C@@H](Cc1cnc[nH]1)C(=O)N[C@@H](CCCCN)C(=O)N/C(=C\CCNC(=N)N)C(=O)N[C@@H](CCCCN)C(=O)NCCCCN)[C@@H](O)CN)[C@@H](O)CN [22.16] (H-A[Dab(3S-OH)][Dab(3S-OH)]G[dOrn]PHK[ΔZArg]K-{NH(CH2)4NH2}) | < 0.03 | − (>32 μg/mL) | + (≤32 μg/mL) | ++ (≤8 μg/mL) | − (>32 μg/mL) | – | – |
| C[C@H](NC(=O)[C@H](CCCCN)NC(=O)[C@H](Cc1cnc[nH]1)NC(=O)[C@@H]1CCCN1C(=O)[C@@H](CCCN)NC(=O)CNC(=O)[C@@H](NC(=O)[C@@H](NC(=O)[C@@H](N)CCCCN)[C@@H](O)CN)[C@@H](O)CN)C(=O)N[C@@H](CCCCN)C(=O)NCCCCN [22.23] (H-K[Dab(3S-OH)][Dab(3S-OH)]G[dOrn]PHKAK-{NH(CH2)4NH2}) | < 0.03 | − (>32 μg/mL) | − (>32 μg/mL) | ++ (≤8 μg/mL) | − (>32 μg/mL) | – | – |
| C=CC[C@H](NC(=O)[C@@H](NC(=O)[C@@H](N)CCCCN)[C@@H](O)CN)C(=O)NCC(=O)N[C@H](CCCN)C(=O)N1CCC[C@H]1C(=O)N[C@@H](Cc1cnc[nH]1)C(=O)N[C@@H](CCCCN)C(=O)N/C(=C\CCNC(=N)N)C(=O)O [216.1] (H-K[Dab(3S-OH)][AllylGly]G[dOrn]PHK[ΔZArg]-OH) | – | − (>32 μg/mL) | − (>32 μg/mL) | + (≤32 μg/mL) | − (>32 μg/mL) | – | – |
| N=C(N)NCC/C=C(\NC(=O)[C@H](CCCCN)NC(=O)[C@H](Cc1cnc[nH]1)NC(=O)[C@@H]1CCCN1C(=O)[C@@H](CCCN)NC(=O)CNC(=O)[C@H](CCCNC(=N)N)NC(=O)[C@@H](NC(=O)[C@@H](N)CCCCN)[C@@H](O)CN)C(N)=O [217.1] (H-K[Dab(3S-OH)]RG[dOrn]PHK[ΔZArg]-NH2) | – | − (>32 μg/mL) | ++ (≤8 μg/mL) | ++ (≤8 μg/mL) | − (>32 μg/mL) | – | – |
| N=C(N)NCC/C=C(\NC(=O)[C@H](CCCCN)NC(=O)[C@H](Cc1cnc[nH]1)NC(=O)[C@@H]1CCCN1C(=O)[C@@H](CCCN)NC(=O)CNC(=O)[C@@H](NC(=O)[C@@H](NC(=O)[C@@H](N)CCCCN)[C@@H](O)CN)C1CCCC1)C(N)=O [220.1] (H-K[Dab(3S-OH)][Gly(cPent)]G[dOrn]PHK[ΔZArg]-NH2) | – | − (>32 μg/mL) | + (≤32 μg/mL) | ++ (≤8 μg/mL) | − (>32 μg/mL) | – | – |
| N=C(N)NCC/C=C(\NC(=O)[C@H](CCCCN)NC(=O)[C@H](Cc1cnc[nH]1)NC(=O)[C@@H]1CCCN1C(=O)[C@@H](CCCN)NC(=O)CNC(=O)[C@H](CN)NC(=O)[C@@H](NC(=O)[C@@H](N)CCCCN)[C@@H](O)CN)C(=O)O [221.1] (H-K[Dab(3S-OH)][Dap]G[dOrn]PHK[ΔZArg]-OH) | – | − (>32 μg/mL) | − (>32 μg/mL) | + (≤32 μg/mL) | − (>32 μg/mL) | – | – |
| N=C(N)NCC/C=C(\NC(=O)[C@H](CCCCN)NC(=O)[C@H](Cc1cnc[nH]1)NC(=O)[C@@H]1CCCN1C(=O)[C@@H](CCCN)NC(=O)CNC(=O)[C@H](CCC(N)=O)NC(=O)[C@@H](NC(=O)[C@@H](N)CCCCN)[C@@H](O)CN)C(N)=O [222.1] (H-K[Dab(3S-OH)]QG[dOrn]PHK[ΔZArg]-NH2) | – | − (>32 μg/mL) | − (>32 μg/mL) | + (≤32 μg/mL) | − (>32 μg/mL) | – | – |
| C#CC[C@H](NC(=O)[C@@H](NC(=O)[C@@H](N)CCCCN)[C@@H](O)CN)C(=O)NCC(=O)N[C@H](CCCN)C(=O)N1CCC[C@H]1C(=O)N[C@@H](Cc1cnc[nH]1)C(=O)N[C@@H](CCCCN)C(=O)N/C(=C\CCNC(=N)N)C(=O)O [223.1] (H-K[Dab(3S-OH)][Pra]G[dOrn]PHK[ΔZArg]-OH) | – | − (>32 μg/mL) | + (≤32 μg/mL) | + (≤32 μg/mL) | − (>32 μg/mL) | – | – |
| N=C(N)NCC/C=C(\NC(=O)[C@H](CCCCN)NC(=O)[C@H](Cc1c[nH]cn1)NC(=O)[C@@H]1CCCN1C(=O)[C@@H](CCCN)NC(=O)CNC(=O)[C@H](CCO)NC(=O)[C@@H](NC(=O)[C@@H](N)CCCCN)[C@@H](O)CN)C(=O)O [225.1] (H-K[Dab(3S-OH)][hSer]G[dOrn]PHK[ΔZArg]-OH) | – | − (>32 μg/mL) | − (>32 μg/mL) | + (≤32 μg/mL) | − (>32 μg/mL) | – | – |
| N=C(N)NCC/C=C(\NC(=O)[C@H](CCCCN)NC(=O)[C@H](Cc1c[nH]cn1)NC(=O)[C@@H]1CCCN1C(=O)[C@@H](CCCN)NC(=O)CNC(=O)[C@@H](NC(=O)[C@@H](NC(=O)[C@@H](N)CCCCN)[C@@H](O)CN)[C@@H](O)CN)C(=O)N[C@@H](CCCCN)C(=O)NCCCCN [Odilomycin C, reference compound] (H-K[Dab(3S-OH)][Dab(3S-OH)]G[dOrn]PHK[ΔZArg]K-{NH(CH2)4NH2}; N-terminus and C-terminus assumed) | < 0.03 | – | – | – | – | – | 0.009 |
